Measured values: PMC3636874, “An Antedrug of the CXCL12 Neutraligand Blocks Experimental Allergic Asthma without Systemic Effect in Mice” (The Journal of Biological Chemistry, 2013)

Tests used:
CXCL12 binding to CXCR4 [1] = target: T1, CXCL12 binding to CXCR4 (Homo sapiens, UniProt P48061); design: method as in PMID 18556651; settings: cited from earlier work
T1 construct: expressed in transfected cells

[2] = test system: inflammatory cell recruitment in the airways of OVA-sensitized and challenged BALB/c mice; test: 8-day murine model of airway hypereosinophilia (OVA sensitization and challenge), cell counts in BALF; type: in vivo, mouse; settings: intranasal 300 nmol/kg in 10% HP-βCD; for effect on eosinophil / inflammatory cell recruitment in BALF after OVA challenge, intranasal: 2 h before each challenge
Experimental: The in vivo activity of the compounds was assessed in an 8-day model of hypereosinophilia created by immunization and challenge to ovalbumin in mice. Briefly, 9-week-old male BALB/c mice were sensitized by intraperitoneal injection of a mixture of 50 μg of ovalbumin (OVA, grade V; Sigma-Aldrich) adsorbed on aluminum hydroxide (2 mg; Sigma-Aldrich) in 0.1 ml of saline on days 0, 1, and 2. Mice were challenged intranasally with 10 μg of OVA in 25 μl of saline (12.5 μl/nostril) on days 5, 6, and 7. Control mice received intraperitoneal and intranasal administrations of saline alone. Intranasal administrations were performed under anesthesia with 50 mg/kg ketamine and 3.33 mg/kg xylazine given intraperitoneally. Food and water were supplied ad libitum. Animal experimentation was conducted with the approval of the government body that regulates animal research in France. The chalcone compounds were administered either by the intraperitoneal or intranasal routes. In a first set of experiments, mice received either chalcone 4 or carbonitrile-chalcone 4 solubilized in PBS with 10% HP-βCD (C0926, Sigma) by intranasal injection 2 h before each nasal OVA or saline challenge. In a second set of experiments, mice received CN-chalcone 4, vanillin, or parachlorobenzoylacetonitrile intranasally, in PBS with HP-βCD 10%, 2 h before each OVA or saline challenge. In the last set of experiments, mice received chalcone 4 or CN-chalcone 4 in suspension in carboxymethylcellulose 1% or solubilized in PBS with HP-βCD 10% and administered by intraperitoneal injection 2 h before each OVA or saline challenge. Collection of bronchoalveolar lavage fluid (BALF) was performed 24 h after the last OVA challenge. Mice were deeply anesthetized by intraperitoneal injection of 150 mg/kg ketamine and 10 mg/kg xylazine. A plastic canula was inserted into the trachea, and airways were lavaged by 10 instillations of 0.5 ml of ice-cold saline supplemented with 2.6 mM EDTA (saline-EDTA). Total and differential cell counts in the BALF were performed after centrifugation (300 × g for 5 min at 4 °C) to pellet cells. Erythrocytes were lysed by hypotonic shock by the addition of 1.5 ml of distilled H2O, followed by the addition of 0.5 ml of 0.6 M KCl. Cells were centrifuged and resuspended in 500 μl of ice-cold saline-EDTA, and total cell counts were determined using a hemocytometer (Neubauer's chamber). Differential cell counts were assessed on cytologic preparation obtained by cytocentrifugation (Cytospin 3, Shandon Ltd.) of 200 μl of diluted BALF (250,000 cells/ml in ice-cold saline-EDTA). Slides were stained with Hemacolor (Merck), and counts were performed on at least 400 cells for each preparation. Differential counts were expressed as absolute numbers or as a percentage of the total number of cells.
The in vivo activity of CN-chalcone 4 was assayed in a recently developed 8-day mouse model of airway hypereosinophilia ([24]). In this model, mice are sensitized by intraperitoneal injection of OVA (50 μg) adsorbed on 2 mg of aluminum hydroxide in 0.1 ml of saline on days 0, 1, and 2. Mice are then challenged intranasally with 10 μg of OVA in 25 μl of saline (12.5 μl/nostril) on days 5, 6, and 7. Drugs to be tested can be administered either systemically by the intraperitoneal route or locally by the intranasal route. The intranasal route mimics the inhalation exposure used in humans, which is the preferred and well accepted administration for inflamed airway treatment, in particular asthma. Thus, unless otherwise stated, drugs were administered intranasally in this study. Due to limited solubility of chalcone 4 (9 ± 1 μM) and CN-chalcone 4 (16 ± 2 μM) in saline buffer, drugs were dissolved in physiological solutions complemented with HP-βCD (10%, w/w). Under such conditions, chalcone 4 and CN-chalcone 4 could be dissolved at maximal concentrations reaching 690 ± 44 and 493 ± 36 μM, respectively.

CXCL12 binding to CXCR4 [3] = target: T1, CXCL12 binding to CXCR4; test: FRET-based binding of CXCL12-TR to EGFP-hCXCR4 (competition); settings: concentrations up to 10 μM
Experimental: FRET-based binding experiments were carried out as described ([26], [46]). Human embryonic kidney 293 cells expressing the fusion receptor EGFP-hCXCR4 were harvested in PBS (137 mM NaCl, 2.7 mM KCl, 4.3 mM Na2PO4·7H2O, 1.4 mM KH2PO4, pH 7.4) supplemented with 5 mM EDTA, pH 7.4, centrifuged, and resuspended in HEPES-bovine serum albumin (BSA) buffer (10 mM HEPES, 137.5 mM NaCl, 1.25 mM MgCl2, 1.25 mM CaCl2, 6 mM KCl, 10 mM glucose, 0.4 mM NaH2PO4, 0.1% bovine serum albumin (w/v), pH 7.4). Cells were used at a concentration of 10^6 cells/ml. Apparent affinities of the different ligands were determined by real-time fluorescence monitoring ligand-receptor interactions. […] Fluorescence emitted at 510 nm (excitation at 470 nm) was recorded at 21 °C using a Fluorolog 2 spectrofluorimeter (SPEX) and sampled every 0.3 s. Binding of CXCL12-TR to EGFP-labeled CXCR4 was detected as a reversible decline of emission at 510 nm, due to energy transfer from excited EGFP to TR. For competition experiments, the fluorescent chemokine was preincubated for 1 h at room temperature with or without various concentrations of each chalcone. Then the premix was added, and fluorescence was recorded until equilibrium was reached (300 s). Data were analyzed using Kaleidagraph 3.08 software (Synergy Software, Reading, PA).

SMILES: O=C(/C=C/c1ccccc1)c1ccccc1 [chalcone 1, reference compound]
- activity upon CXCL12 binding to CXCR4 (CXCL12 binding to CXCR4 [1]): inactive
- effect on eosinophil / inflammatory cell recruitment in BALF after OVA challenge, intranasal [2]: nor does it significantly attenuate eosinophil or any other inflammatory cell recruitment in the airways
- cell recruitment in the airways elicited by compound itself (saline-challenged mice), intranasal ([2]; no OVA challenge): does not promote any inflammatory response per se

SMILES: N#CCC(=O)c1ccc(Cl)cc1 [pCBA, para-chlorobenzoylacetonitrile]
- effect on eosinophil / inflammatory cell recruitment in BALF after OVA challenge, intranasal [2]: no effect on eosinophil recruitment in the airways
- binding-neutralizing activity (CXCL12-TR binding to EGFP-CXCR4) (CXCL12 binding to CXCR4 [3]): Neither vanillin nor pCBA exhibits any binding-neutralizing activity

SMILES: COc1cc(C=O)ccc1O [vanillin]
- effect on eosinophil / inflammatory cell recruitment in BALF after OVA challenge, intranasal [2]: no effect on eosinophil recruitment in the airways
- binding-neutralizing activity (CXCL12-TR binding to EGFP-CXCR4) (CXCL12 binding to CXCR4 [3]): Neither vanillin nor pCBA exhibits any binding-neutralizing activity
